Data set [1] in a line: Isothermal titration calorimetry of octanoic acid with cyclodextrin. In kind it is binding. To be noted: 1:1 complex, DPBS. As to the method: The binding energy between octanoic acid and -cyclodextrin (-CD) was determined by isothermal titration calorimetry. Briefly, solutions used of […]-CD and 0.2 M octanoic acid were made in DPBS. Ten injections of […] each of the octanoic acid solution were made into 1.37 ml of the cyclodextrin in a Microcal ITC unit. A 1:1 complex is formed with an equilibrium constant of 1900.

The nature of data set [2]: Levofloxacin stability on formulation at elevated temperature / autoclaving. The class given is physicochemical. To be noted: HPLC, solution equilibrated at 60° C. An excerpt: Wet-spinning fibers from a solution of levofloxacin and PLGA results in a product that is porous with a rough surface (on the sub-micron length scale). The internal morphology of the fiber is consistent with fiber prepared in previous work via wet-spinning. (See, e.g., Gao, H., et al., Journal of Controlled Release 2007; 118(3):325-332, the disclosure of which is incorporated herein by reference.) The protuberances on the surface of the fiber are likely the result of the drug forming aggregates on the surface, and/or by the drug distorting the polymer matrix at the surface. Fiber B has larger more discrete protuberances relative to fibers A and C. This may be due to fiber B having suspended particles of drug present in the polymer solution before wet spinning. […] Fiber C was manufactured at an elevated temperature to absolutely assure total drug dissolution in the polymer/DMSO solution. […] (See e.g., Fujimoto, K., et al., Jpn J Pharmacol 1995; 69(4):443-445, the disclosure of which is incorporated herein by reference.)

With `CCCCCCCC(=O)O` [octanoic acid], the equilibrium constant in data set [1] is recorded as 1900.
As for `C[C@H]1COc2c(N3CCN(C)CC3)c(F)cc3c(=O)c(C(=O)O)cn1c23` [Levofloxacin, levofloxacin], the “stability after formulation at higher temperatures” value in data set [2] is reported as “no other peaks were observed in the HPLC chromatogram”.

For the origin of these results see US8974814B2, “Layered drug delivery polymer monofilament fibers” (California Institute of Technology, priority 2007, dated 2015).
